Source: patent US10258642B2, “Dextran sulfate for use in mobilization of cells” (TX MEDIC AB, priority 2013, dated 2019)
Marks after values point to notes of the source that are not given here.

Legend:
peripheral blood cells [1] = details: single dose; AMD3100 s.c., dextran sulfate i.v.
peripheral blood cells [2] = assay: time-effect relationship, hematological analysis; details: 100 mg/kg i.v.; for Lymph / PLT / WBC: mean±SEM
Experimental: Peripheral blood was sampled by terminal heart puncture under isoflurane-anesthesia using EDTA-flushed syringes and transferred to polypropylene tubes containing 1.6 mg EDTA (Sarstedt, Landskrona, Sweden).

peripheral blood cells [3] = assay: s.c. dose finding study, hematological analysis of peripheral blood; details: for Basophils / Eosinophils / Erythrocytes / Hematocrit / Hemoglobin / LUC / Leukocytes (WBC) / Lymphocytes / MCHC / MCV / MPV / Monocytes / Neutrophils / Platelets / Reticulocytes: 3 hours, mean ± SEM

With dextran sulfate [LMW-DS] the “general increase of WBC over control” value (peripheral blood cells [1]) was 4-5 times, the “number of platelets (PLT)” value (peripheral blood cells [2]) was “did not affect” and the Lymph (peripheral blood cells [2]; 7.5 min) was 4.6 ± 0.5*** *10^9/L. For the same substance, the PLT (peripheral blood cells [2]; 7.5 min) was 1,034 ± 31 *10^9/L, the WBC (peripheral blood cells [2]; 7.5 min) was 5.6 ± 0.5* *10^9/L and the Lymph (peripheral blood cells [2]; 15 min) was 8.9 ± 0.7*** *10^9/L. The PLT (peripheral blood cells [2]; 15 min) was 1,122 ± 58 *10^9/L, the WBC (peripheral blood cells [2]; 15 min) was 10.2 ± 0.7*** *10^9/L and the Lymph (peripheral blood cells [2]; 30 min) was 12.3 ± 1.1*** *10^9/L. For the same substance, the PLT (peripheral blood cells [2]; 30 min) was 978 ± 64 *10^9/L, the WBC (peripheral blood cells [2]; 30 min) was 14.6 ± 1.3*** *10^9/L and the Lymph (peripheral blood cells [2]; 1 hr) was 8.8 ± 0.5*** *10^9/L. The PLT (peripheral blood cells [2]; 1 hr) was 965 ± 23 *10^9/L, the WBC (peripheral blood cells [2]; 1 hr) was 11.2 ± 0.6*** *10^9/L and the Lymph (peripheral blood cells [2]; 3 hr) was 5.2 ± 0.8** *10^9/L. For the same substance, the PLT (peripheral blood cells [2]; 3 hr) was 936 ± 26 *10^9/L, the WBC (peripheral blood cells [2]; 3 hr) was 6.8 ± 1.0* *10^9/L and the “time of highest numbers of WBC and lymphocytes” value (peripheral blood cells [2]; mice) was “around 30 minutes”. The “circulating white blood cells (WBC), mainly lymphocytes, and HGF” value (peripheral blood cells [3]; 10-500 mg/kg s.c., 3 hours after administration) was “dose-dependent increase”, the Basophils (peripheral blood cells [3]; LMW-DS (pKC) 10 mg/kg s.c.) was 0.02 ± 0.0 10^9 cells/L and the Eosinophils (peripheral blood cells [3]; LMW-DS (pKC) 10 mg/kg s.c.) was 0.2 ± 0.0† 10^9 cells/L. For the same substance, the Erythrocytes (peripheral blood cells [3]; LMW-DS (pKC) 10 mg/kg s.c.) was 9.0 ± 0.0††† 10^12 cells/L, the Hematocrit (peripheral blood cells [3]; LMW-DS (pKC) 10 mg/kg s.c.) was 0.4 ± 0.0 and the Hemoglobin (peripheral blood cells [3]; LMW-DS (pKC) 10 mg/kg s.c.) was 122.0 ± 1.7. The LUC (peripheral blood cells [3]; LMW-DS (pKC) 10 mg/kg s.c.) was 0.1 ± 0.0* 10^9 cells/L, the “Leukocytes (WBC)” value (peripheral blood cells [3]; LMW-DS (pKC) 10 mg/kg s.c.) was 9.0 ± 1.2* 10^9 cells/L and the Lymphocytes (peripheral blood cells [3]; LMW-DS (pKC) 10 mg/kg s.c.) was 6.1 ± 0.5** 10^9 cells/L. It also gave an MCHC (peripheral blood cells [3]; LMW-DS (pKC) 10 mg/kg s.c.) of 323.7 ± 3.8 g/L, an MCV (peripheral blood cells [3]; LMW-DS (pKC) 10 mg/kg s.c.) of 41.9 ± 0.1 fL and an MPV (peripheral blood cells [3]; LMW-DS (pKC) 10 mg/kg s.c.) of 7.7 ± 0.2. For the same substance, the Monocytes (peripheral blood cells [3]; LMW-DS (pKC) 10 mg/kg s.c.) was 0.6 ± 0.011 10^9 cells/L, the Neutrophils (peripheral blood cells [3]; LMW-DS (pKC) 10 mg/kg s.c.) was 1.9 ± 0.4 10^9 cells/L and the Platelets (peripheral blood cells [3]; LMW-DS (pKC) 10 mg/kg s.c.) was 1083.3 ± 116.3† 10^9 cells/L. The Reticulocytes (peripheral blood cells [3]; LMW-DS (pKC) 10 mg/kg s.c.) was 222.7 ± 6.3 10^9 cells/L, the Basophils (peripheral blood cells [3]; LMW-DS (pKC) 50 mg/kg s.c.) was 0.03 ± 0.0 10^9 cells/L and the Eosinophils (peripheral blood cells [3]; LMW-DS (pKC) 50 mg/kg s.c.) was 0.2 ± 0.0 10^9 cells/L. For the same substance, the Erythrocytes (peripheral blood cells [3]; LMW-DS (pKC) 50 mg/kg s.c.) was 9.2 ± 0.4† 10^12 cells/L, the Hematocrit (peripheral blood cells [3]; LMW-DS (pKC) 50 mg/kg s.c.) was 0.4 ± 0.0 and the Hemoglobin (peripheral blood cells [3]; LMW-DS (pKC) 50 mg/kg s.c.) was 127.8 ± 5.0. The LUC (peripheral blood cells [3]; LMW-DS (pKC) 50 mg/kg s.c.) was 0.1 ± 0.0* 10^9 cells/L, the “Leukocytes (WBC)” value (peripheral blood cells [3]; LMW-DS (pKC) 50 mg/kg s.c.) was 9.4 ± 0.7 10^9 cells/L and the Lymphocytes (peripheral blood cells [3]; LMW-DS (pKC) 50 mg/kg s.c.) was 7.3 ± 0.6**/f 10^9 cells/L. It also gave an MCHC (peripheral blood cells [3]; LMW-DS (pKC) 50 mg/kg s.c.) of 324.3 ± 1.41 g/L, an MCV (peripheral blood cells [3]; LMW-DS (pKC) 50 mg/kg s.c.) of 42.6 ± 0.3 fL and an MPV (peripheral blood cells [3]; LMW-DS (pKC) 50 mg/kg s.c.) of 7.9 ± 0.1. The Monocytes (peripheral blood cells [3]; LMW-DS (pKC) 50 mg/kg s.c.) was 0.3 ± 0.1 10^9 cells/L, the Neutrophils (peripheral blood cells [3]; LMW-DS (pKC) 50 mg/kg s.c.) was 1.5 ± 0.2 10^9 cells/L and the Platelets (peripheral blood cells [3]; LMW-DS (pKC) 50 mg/kg s.c.) was 902.0 ± 96.4 10^9 cells/L. For the same substance, the Reticulocytes (peripheral blood cells [3]; LMW-DS (pKC) 50 mg/kg s.c.) was 230.1 ± 64.6 10^9 cells/L, the Basophils (peripheral blood cells [3]; LMW-DS (pKC) 150 mg/kg s.c.) was 0.1 ± 0.0** 10^9 cells/L and the Eosinophils (peripheral blood cells [3]; LMW-DS (pKC) 150 mg/kg s.c.) was 0.3 ± 0.1* 10^9 cells/L. For the same substance, the Erythrocytes (peripheral blood cells [3]; LMW-DS (pKC) 150 mg/kg s.c.) was 8.3 ± 0.6 10^12 cells/L and the Hematocrit (peripheral blood cells [3]; LMW-DS (pKC) 150 mg/kg s.c.) was 0.3 ± 0.0.
